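Each compound was tested at five concentrations against cells in 96-well plates for 48 hours. TGI is the concentration that stops growth completely.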
Legend:
Assay in all cases: NCI anticancer screen, dose series, 48 h
OVCAR-5 ovarian = system: OVCAR-5 ovarian
SK-MEL-2 melanoma = system: SK-MEL-2 melanoma
HCT-116 colon = system: HCT-116 colon
NCI-H23 lung = system: NCI-H23 lung
NCI-H460 lung = system: NCI-H460 lung
SNB-78 CNS = system: SNB-78 CNS
SF-268 CNS = system: SF-268 CNS
SR leukemia = system: SR leukemia
ACHN renal = system: ACHN renal
MALME-3M melanoma = system: MALME-3M melanoma
UO-31 renal = system: UO-31 renal
M14 melanoma = system: M14 melanoma
LOX IMVI melanoma = system: LOX IMVI melanoma
OVCAR-4 ovarian = system: OVCAR-4 ovarian
RXF-631 renal = system: RXF-631 renal
SF-295 CNS = system: SF-295 CNS
SNB-75 CNS = system: SNB-75 CNS
SF-539 CNS = system: SF-539 CNS
SK-MEL-28 melanoma = system: SK-MEL-28 melanoma
MOLT-4 leukemia = system: MOLT-4 leukemia

Structure (SMILES) | TGI (OVCAR-5 ovarian) [µM] | TGI (SK-MEL-2 melanoma) [µM] | TGI (HCT-116 colon) [µM] | TGI (NCI-H23 lung) [µM] | TGI (NCI-H460 lung) [µM] | TGI (SNB-78 CNS) [µM] | TGI (SF-268 CNS) [µM] | TGI (SR leukemia) [µM] | TGI (ACHN renal) [µM] | TGI (MALME-3M melanoma) [µM] | TGI (UO-31 renal) [µM] | TGI (M14 melanoma) [µM] | TGI (LOX IMVI melanoma) [µM] | TGI (OVCAR-4 ovarian) [µM] | TGI (RXF-631 renal) [µM] | TGI (SF-295 CNS) [µM] | TGI (SNB-75 CNS) [µM] | TGI (SF-539 CNS) [µM] | TGI (SK-MEL-28 melanoma) [µM] | TGI (MOLT-4 leukemia) [µM]
CC(C)=CCC/C(C)=C/CC/C(C)=C/C(O)c1ccccc1 (stereo unspecified) | 32.5 | 34.9 | 32.2 | 55.8 | 35.3 | 68 | 35.3 | 44.1 | 31.2 | 34.5 | 36.3 | 32.7 | 35.9 | > 10 | 34.1 | 33.8 |  |  |  | 
COc1ccc(C2C(Cl)C(=O)N2NC(=O)c2ccc(NC(C)=O)cc2)cc1OC (stereo unspecified) | > 100 | > 100 | > 100 | > 100 | > 100 |  | > 100 | > 100 | > 100 | > 100 | > 100 |  |  |  |  | > 100 | > 100 | > 100 | > 100 | > 100
CCN(CC)CCSc1nc2c([N+](=O)[O-])cccc2[nH]1 |  |  |  | > 100 |  | > 100 |  |  |  |  |  | > 100 | > 100 | > 100 | > 100 |  | > 100 | > 100 | > 100 | > 100

— PubChem BioAssay (NCI)
